Measured values: patent US9908890B2, “Selective inhibitors of constitutive androstane receptor” (ST. JUDE CHILDREN'S RESEARCH HOSPITAL, priority 2014, dated 2018)

Experiments:
[1] = system: CAR-regulated genes in HepG2-hCAR1 cells; test: Quantitative real-time PCR in HepG2-hCAR1 cells; assay type: cell-based, human
Source text: RNA was extracted, cDNA synthesized, and gene expression analyzed by performing real-time PCR using Taqman probes for each gene. […] LS174T cells were maintained in 10% charcoal-dextran-treated, FBS media for 4 days before the experiment. […] Briefly, human primary hepatocytes (HPH) were maintained in William's E media with supplements for 4 days before treatment. […] RNA extracted was used for cDNA synthesis and measured by performing quantitative real-time PCR assays with Taqman probes.
Briefly, LS174T were maintained in 10% charcoal-dextran treated-FBS media for 4 days prior to the experiment. […] For the data shown in both FIG. 12A and FIG. 12B, RNA extracted was used for cDNA synthesis and measured by quantitative real-time PCR with Taqman probes. MDR1 mRNA was normalized to the internal control 18S and DMSO treated samples were set to 1. *, p<0.05 when compared to DMSO samples.
Cell lines or human hepatocytes were treated with chemicals for 24-48 hours before RNA was extracted and purified by using the Maxwell 16LEV simplyRNA tissue kit (Promega). Then, cDNA was prepared from 2 μg of RNA, and diluted cDNA was used to perform quantitative RT-PCR assays by using TaqMan probes (ABI; 7500 Thermocycler) with 18S as the internal standard.

[2] = system: FLAG-hCAR1 nuclear localization; test: Immunofluorescence of FLAG-hCAR1 in U2OS cells; assay type: cell-based, human; conditions: 5 μM CINPA1, 2 h
Procedure: Briefly, CAR binding to PGC-1α coactivator peptide was determined by using the LanthaScreen® fluorescent coregulator peptide assay. Fluorescein-labeled PGC-1α peptide (125 nM) was complexed with GST-hCAR-LBD (5 nM) and Tb-anti-GST antibody (5 nM) as described in Experimental Procedures. […] Lysates were prepared, and CAR expression was analyzed by Western blot using CAR monoclonal antibody (Clone N4111, R&D Systems). β-actin was used as a loading control. […] Briefly, U2OS cells were transfected to express FLAG-hCAR1. […] Secondary antibody labeled with Alexa Fluor® 555 dye was used to visualize FLAG-tagged hCAR1 (shown in the second column) using a NikonC 1Si microscope. Nuclei were stained with DAPI (shown in the first column).
U2OS cells were transiently transfected to express FLAG-hCAR1. […] Cells were fixed by using a 4% paraformaldehyde solution (Sigma), permeabilized by using 0.5% Triton X-100 in PBS, and incubated with FLAG-antibody overnight at 4° C. Cells were washed three times with PBS following each step. Secondary antibody labeled with Alexa Fluor® 555 dye was used to visualize FLAG-tagged hCAR1 (red) using a NikonC 1Si microscope. Nuclei were stained with DAPI (blue).

hPXR = target: T1, hPXR (Homo sapiens, UniProt O75469); test: PXR luciferase assay (HepG2-PXR Clone 1, CYP3A4-luciferase reporter); assay type: cell-based
T1 construct: expressed in transfected cells
T1 sequence (O75469 1-434): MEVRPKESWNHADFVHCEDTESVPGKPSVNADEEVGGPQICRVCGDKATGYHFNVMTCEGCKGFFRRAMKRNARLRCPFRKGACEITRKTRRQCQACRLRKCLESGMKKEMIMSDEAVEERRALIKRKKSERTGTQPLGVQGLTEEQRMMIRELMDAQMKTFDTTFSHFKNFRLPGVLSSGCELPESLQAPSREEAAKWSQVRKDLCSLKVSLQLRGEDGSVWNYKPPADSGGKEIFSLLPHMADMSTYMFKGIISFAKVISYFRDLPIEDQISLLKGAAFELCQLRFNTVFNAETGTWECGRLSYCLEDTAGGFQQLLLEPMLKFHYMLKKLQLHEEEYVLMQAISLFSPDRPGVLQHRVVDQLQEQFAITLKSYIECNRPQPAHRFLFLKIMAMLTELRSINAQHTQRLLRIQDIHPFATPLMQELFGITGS
Procedure: Luciferase activity was measured 24 h after treatment by using SteadyLite™ reagent. […] GraphPad Prism was used to fit the data into a dose-response equation to derive IC50 values. […] The percentage of PXR activation was calculated by setting that of DMSO-treated cells (negative control) to 0%, and that of 5 μM rifampicin-treated cells (positive control) to 100%. HepG2 cells stably expressing hPXR and CYP3A4-luciferase reporter (PXR Clone 1) were treated with indicated compounds for 24 h. Luciferase activity was measured 24 h after treatment by using SteadyLite reagent. The percentage of PXR activation was calculated by setting that of DMSO-treated cells (negative control) to 0%, and that of 5 μM rifampicin-treated cells (positive control) to 100%.
Briefly, HepG2 cells were transiently transfected with plasmids expressing hCAR1, CYP3A4-luc reporter and control plasmid pTK-RL. […] Dual luciferase activity was measured 24 h after treatment using Dual-Glo® luciferase reagent. Renilla luciferase was used to normalize firefly luciferase values and % Luciferase activity was calculated by setting DMSO to 100%. p<0.001, when comparing DMSO to all treatments except 5 μM rifampicin. […] Briefly, HepG2-PXR Clone 1 cells were treated with CINPA1 in a dose-responsive format (40 μM to 2 nM, 1-to-2 dilutions for 10 concentrations) in the presence or absence of 5 μM rifampicin (Rif) for 24 h before luciferase assay using SteadyLite™. % PXR activity was calculated by setting DMSO (negative. control) treated cells to 0% and 5 μM rifampicin (positive. control) treated cells to 100%. GraphPad Prism was used to fit the data into a dose-response stimulation equation to derive IC50 values. […] Briefly, U2OS cells were transiently transfected with plasmids expressing hCAR1, CYP2B6-luc reporter and control plasmid pTK-RL. […] Dual luciferase activity was measured 24 h after treatment. Renilla luciferase was used to normalize firefly luciferase values and % Luciferase activity was calculated by setting DMSO to 100%. *, p<0.0001 comparing CITCO+CINPA1 to CITCO treated cells. […]

CCOC(=O)Nc1ccc2c(c1)N(C(=O)CN(CC)CC)c1ccccc1CC2 [CINPA1]
MDR1 mRNA level ([1]; HepG2-hCAR1, 0.1 μM CINPA1 or 1 μM PK11195, 24 h): reduced MDR1 levels
CYP2B6 mRNA level ([1]; HepG2-hCAR1, 1 μM, 24 h): substantially and significantly attenuated
CYP3A4 mRNA level ([1]; HepG2-hCAR1, 1 μM, 24 h): substantially and significantly attenuated
nuclear localization of CAR [2]: does not alter the nuclear localization of CAR
inhibition of PXR-mediated gene expression (hPXR; 18 μM CINPA1 with 5 μM rifampicin, 24 h): weakly inhibited PXR-mediated gene expression
agonistic effect on PXR-regulated gene expression (hPXR; 40 μM): did not exhibit any agonistic effect
IC50 (hPXR; in the presence of 5 μM rifampicin, read-out: IC50, antagonist of PXR): 6.6 µM
